According to paper PMC12703733, “Probing Guanidino Pendant or Bridged Groups in Cyclic Antimicrobial Peptides Derived from Temporin L: A Strategy to Improve Efficacy against Gram-Negative Bacteria” (Journal of Medicinal Chemistry, 2025):
In brackets after ≈: the same amount, converted by molar mass. Where two headings read alike, the source gives them in different places. Marks after values point to notes of the source that are not given here. Bridge positions count the residues as written; N and C are the ends. Square brackets hold non-standard residues; d marks the D form. Peptide text beside a SMILES is read from it.

Tests used:
[1] = parameters: method as in Bellavita et al.; conditions: CD in H2O; previously determined for peptide 12; ref Bellavita et al.; cited from earlier work
[2] = system: S. epidermidis ATCC 12228; parameters: method as in Bellavita et al.; conditions: previously determined for peptide 12, ref Bellavita et al., cited from earlier work
[3] = system: B. megaterium BM11; parameters: method as in Bellavita et al.; conditions: previously determined for peptide 12, ref Bellavita et al., cited from earlier work
[4] = system: E. faecalis ATCC 29212; assay: microbe, parasite or virus in culture; type: cell-based; conditions: ATCC 29212
How it was run: (§1)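 Inoculum of 2 × 10^6 cell/mL (mid-log, Mueller Hinton broth) is incubated at 37 °C with test compound; ciprofloxacin serves as antibiotic control.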

[5] = system: E. coli D21; assay: microbe, parasite or virus in culture; type: cell-based; conditions: D21
How it was run: as §1

[6] = system: S. agalactiae ATCC 27591; assay: microbe, parasite or virus in culture; type: cell-based; conditions: ATCC 27591
How it was run: as §1

[7] = system: P. aeruginosa PAO1; assay: microbe, parasite or virus in culture; type: cell-based; conditions: PAO1
How it was run: as §1

[8] = system: P. aeruginosa ATCC 27853; parameters: method as in Bellavita et al.; conditions: previously determined for peptide 12, ref Bellavita et al.; cited from earlier work
[9] = system: all bacteria tested; assay: MIC panel, geometric mean over all strains; type: cell-based; conditions: geometric mean of the MICs against all bacteria tested
Procedure: (§2) The antimicrobial efficacy of the TLcyc analogues was assessed against a representative panel of Gram-positive and Gram-negative bacterial strains, by determining their minimal inhibitory concentrations (MIC), as summarized in Table . To provide an integrated measure of antimicrobial potency, we calculated the geometric mean (GM) of MIC values across all strains (GMall), as well as separately for Gram-positive (GMGram+) and Gram-negative (GMGram–) bacteria.
(§3) Bacterial strains used in this study were the Gram-positive S. aureus ATCC 25923, S. epidermidis ATCC 12228, B. megaterium BM11, S. agalactiae ATCC 27591, E. faecalis ATCC 29212 and the Gram-negative E. coli ATCC 25922, P. aeruginosa ATCC 27853, A. baumannii ATCC 19606, E. coli D21 and P. aeruginosa PAO1. […] Bacterial cells in the mid log phase were diluted in Muller Hinton (MH) at a concentration of 2 × 10^6 cell/mL. Aliquots of 50 μL of this bacterial suspension were added to 50 μL of MH containing serial 2-fold dilutions of the peptides (from 100 to 0.19 μM) in the wells a 96-well plate. Ciprofloxacin was used as antibiotic control. The plate was then incubated at 37 °C. MICs were obtained from three identical readings of four independent experiments.

[10] = system: E. coli ATCC 25922; parameters: method as in Bellavita et al.; conditions: previously determined for peptide 12, ref Bellavita et al., cited from earlier work
[11] = system: Gram-negative bacteria tested; assay: MIC panel, Gram-negative strains (geometric mean); type: cell-based; conditions: geometric mean of the MICs against Gram-negative bacteria tested
Procedure: as §2, §3

[12] = system: S. aureus ATCC 25923; parameters: method as in Bellavita et al.; conditions: previously determined for peptide 12, ref Bellavita et al., cited from earlier work
[13] = system: Gram-positive bacteria tested; assay: MIC panel, Gram-positive strains (geometric mean, range); type: cell-based; conditions: geometric mean of the MICs against Gram-positive bacteria tested
Procedure: as §2, §3

[14] = system: A. baumannii ATCC 19606; parameters: method as in Bellavita et al.; conditions: previously determined for peptide 12, ref Bellavita et al., cited from earlier work

CC[C@H](C)[C@H](NC(=O)[C@H](CCCNC(=N)N)NC(=O)[C@@H]1CCC(=O)NCCCC[C@H](NC(=O)[C@H](Cc2ccccc2)NC(=O)[C@H](Cc2c[nH]c3ccccc23)NC(=O)[C@@H]2CCCN2C(=O)[C@@H](NC(=O)[C@@H](N)Cc2ccccc2)C(C)C)C(=O)N[C@@H](CCCCN)C(=O)N[C@@H](Cc2ccccc2)C(=O)N[C@H](CC(C)C)C(=O)N1)C(=O)N[C@@H](CC(C)C)C(N)=O [Peptide 1, FVPWF[KKFlE]RIL] (H-FVPWFKKF[dL]ERIL-NH2; lactam 6-10)
Content in water (%) random [1]: 55%
Content in water (%) α-helix [1]: 2%
Content in water (%) β-strand [1]: 41%
MIC ([2]; listed as 1 (TL cyc )): 3.12 ^a μM
MIC [2]: 3.12 µM (≈ 5.32 µg/mL)
MIC ([3]; listed as 1 (TL cyc )): 1.56 ^a μM
MIC [3]: 1.56 µM (≈ 2.66 µg/mL)
MIC [4]: 6.25 µM (≈ 10.7 µg/mL)
MIC [5]: 12.5 µM (≈ 21.3 µg/mL)
MIC [6]: 3.12 µM (≈ 5.32 µg/mL)
MIC [7]: 25 µM (≈ 42.6 µg/mL)
MIC [8]: 100 ^a μM
geometric mean GMall [9]: 7.67 µM
MIC ([10]; listed as 1 (TL cyc )): 25 ^a μM
MIC [10]: 25 µM (≈ 42.6 µg/mL)
geometric mean GMGram– [11]: 18.9 µM
MIC ([12]; listed as 1 (TL cyc )): 3.12 ^a μM
MIC [12]: 3.12 µM (≈ 5.32 µg/mL)
geometric mean GMGram+ [13]: 3.12 µM
MIC ([14]; listed as 1 (TL cyc )): 3.12 ^a μM
MIC [14]: 3.12 µM (≈ 5.32 µg/mL)
